Assay results published in patent US8344113B2, “Diagnostic tumor markers, drug screening for tumorigenesis inhibition, and compositions and methods for treatment of cancer” (Minerva Biotechnologies Corporation, priority 2000, dated 2013).

Target: T1, MGFR portion of the MUC1 receptor (His-PSMGFR) and ligand(s) in T47D lysate (Homo sapiens, UniProt P15941, R1131P)
T1 construct: made in house; host or cells: chemical synthesis (synthetic peptide)
T1 sequence (P15941 with tags, fused parts or gaps R1131P): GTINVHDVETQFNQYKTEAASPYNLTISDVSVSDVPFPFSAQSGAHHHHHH
Assay: Colloid color-change ligand binding assay with or without enzyme inhibitor
Type: biochemical
Details: T47D lysate treated with inhibitor, final concentration 3 mM
Description: To test the hypothesis that the MGFR portion of the MUC1 receptor is enzymatically modified prior to binding to its ligand(s), the drug screening assay described in Example 5a was performed in the presence or absence of an enzyme inhibitor, PMSF (phenylmethylsulfonyl fluoride; Sigma chemical Co. St. Louis Mo., USA). T47D cells, which are breast tumor cells that aberrantly express MUC1, were grown to 70% confluency, treated with trypsin to detach from the flask, and pelleted by centrifugation. A lysate was prepared as follows from the pellets of two T75 flasks. Cell pellets were resuspended in 300 μL phosphate buffer (10 mM sodium phosphate, 100 mM NaCl, pH 7.4). The lysate was divided into two parts. One aliquot of lysate was used as is. To the second aliquot was added 9 μL of a 100 mM stock solution to achieve a final concentration 3 mM. The lysates were frozen and thawed four times with 15 seconds of vigorous mixing after each thawing. Lysates were then pelleted by centrifugation and the supernatant collected. Lysates were diluted by adding 6.2 ml of phosphate buffer. The drug screening assay was then performed as described in Example 5a, with the exception that no drugs were added. Rather the ability of the ligand(s) in the lysate to bind to the MGFR in a multimeric way, which would result in the solution color to change to blue, was tested. […]

How did the “Solution color change (ligand binding to His-PSMGFR colloids)” value turn out when `O=S(=O)(F)Cc1ccccc1` [PMSF, phenylmethylsulfonyl fluoride] was run?
The value was “did not change color and remained pink”.
